From PMC6497007, “Development, Validation of LC-MS/MS Method and Determination of Pharmacokinetic Parameters of the Stroke Neuroprotectant Neurounina-1 in Beagle Dog Plasma After Intravenous Administration” (Frontiers in Pharmacology, 2019)
Where two headings read alike, the source gives them in different places.

Assays:
[1] = ref Molinaro et al., 2013; cited from earlier work
[2] = Pharmacokinetics in plasma after a single intravenous administration to beagle dogs (LC-MS/MS, non-compartmental analysis); type: in vivo, beagle dog; conditions: for C0 / Vd / clearance / k el / half-life: both sexes, beagle, dog, plasma, iv; for C0 / AUC0-inf / AUC0-tlast / AUC%extrap: beagle dog plasma; for k el: read-out: Ke (converted)
Protocol: Aliquots (0.05 mL) of each plasma sample were added to glass tubes followed by 0.05 mL of IS (ropivacaine 100 ng/mL). The tubes were vortexed for 5 s and 0.1 mL of acetonitrile were added. The samples were vortexed for 40 s, again, and then centrifuged at 2000 ×g for 5 min. The obtained supernatants were transferred to microvials for analysis.
Neuronina-1 was separated in a 150 mm × 4.6 mm x 5 μm Phenomenex C18Luna reversed phase analytical column (Phenomenex Inc., CA, United States). The temperature of the column was maintained constant at 65°C. The mobile phase used was composed by methanol/acetonitrile/water (50/40/10, v/v/v) + 0.1% of formic acid + 1 M ammonium formate at a flow rate of 1 mL/min (split 1:3). The auto-sampler was maintained at room temperature.
The mass spectrometer (Quattro Micro – Micromass, Waters, United Kingdom) equipped with an electrospray source in the ESI positive polarity mode (ES+) was configured for multiple reaction monitoring (MRM) to monitor the transitions 365.3 > 83.9 and 275.2 > 126.0, for neurounina-1 and ropivacaine, respectively. […] To optimize all MS parameters, a standard solution of the analyte and IS was infused into the mass spectrometer. The optimized values of ion spray voltage, collision energy, and cone voltage were, respectively 2800 (V), 20 (eV), and 20 (V) for neurounina-1 and 2800 (V), 15 (eV), and 15 (V) for ropivacaine. Data acquisition and analysis were performed using the software Masslynx 4.0 (Waters Corporation, Milford, MA, United States).
(§1) Beagle dogs (n = 5) of both sexes, aged between 2 and 3 years old, weighing between 10 and 14 kg were provided by Camilo Castelo Branco University, Brazil. The dogs were housed in Domingos Alves Veterinary Hospital in individual rooms and fed with a standard canine food. They had free access to water. The dogs underwent rigorous veterinary control and were all considered healthy based on physical examination and laboratory analysis performed before initiation and after completion of each occasion of the study. At the end of the study, the animals were returned to their habitat. This study was carried out in accordance with the recommendations of the general ethical guidelines established by the Brazilian Society for Laboratory Animal Science (SBCAL). The protocol was approved by the Committee for Ethics in Animal Use – State University of Campinas (CEUA/UNICAMP, protocol n° 3340-1).
(§2) After an overnight (8 h) fasting, a single intravenous dose of 0.1 mg/kg, 0.3 mg/kg, or 1 mg/kg neurounina-1 formulation was administered to beagle dogs, with 7 days washout period between each dose administration. Blood samples (5 mL) from a suitable antecubital vein were collected into heparin-containing tubes before and 0.03, 0.08, 0.17, 0.25, 0.33, 0.5, 1, 2, 3, 4, 6, 8, 12, and 24 h after the administration of each dose. A total of 210 mL of blood was collected during the study. The blood samples treated with sodium heparin were centrifuged at approximately 2000 ×g for 10 min at 4°C and the plasma was stored at -20°C until analysis.
Non-compartmental analysis was used to determine the pharmacokinetic parameters of neurounina-1 after the intravenous administration. The concentration at time zero (C0) was estimated by back-extrapolating from the elimination curve. The area under the plasma concentration vs. time curves from zero to the last detectable concentration (AUC0-tlast) were calculated by applying the linear-log trapezoid rule. Extrapolation of these areas to infinity (AUC0-inf) was done by adding the value Clast/ke to the calculated AUC0-tlast (where Clast = the last detectable concentration). Clearance (CL) was calculated by the formula dose/AUC0-inf. Volume of distribution (Vd) was calculated by the formula CL/ke. The WinNonlin software, version 6.4 (Pharsight Corp, Mountain View, CA, United States) was used. Statistical analysis was performed using GraphPad Prism software, version 3.2 (GraphPad Software, San Diego, California, United States).

[3] = test system: transient middle cerebral artery occlusion (tMCAO); set-up: method as in Molinaro et al., 2013; conditions: ref Molinaro et al., 2013, cited from earlier work
[4] = Stability tests in beagle dog plasma (QC samples); type: in vitro ADME
Protocol: To assess stability, QC plasma samples (1.5 and 400.0 ng/mL) were subjected to short-term (6 h) incubation at room temperature; four freeze/thaw (-20°C) cycles and 52 h in the autosampler at room temperature. Subsequently, the neurounina-1 concentrations were measured and compared with freshly prepared samples.

[5] = test system: NCX1 and NCX2; set-up: method as in Molinaro et al., 2013; conditions: ref Molinaro et al., 2013; cited from earlier work
[6] = test system: beagle dogs; assay: Tolerability in beagle dogs after intravenous administration; type: in vivo, beagle dog; conditions: single i.v. 0.1, 0.3 and 1 mg/kg
Protocol: as §1
as §2, with “The blood samples treated with sodium heparin were centrifuged at approximately 2000 ×g for 10 min at 4°C and the plasma was stored at -20°C until analysis.” left out

[7] = 0.1 mg/kg, mean, 0.1 mg/kg single i.v., beagle dog, n = 5
[8] = 0.1 mg/kg, median, 0.1 mg/kg single i.v., beagle dog, n = 5
[9] = 0.3 mg/kg, mean, 0.3 mg/kg single i.v., beagle dog, n = 5
[10] = 0.3 mg/kg, median, 0.3 mg/kg single i.v., beagle dog, n = 5
[11] = 1 mg/kg, mean, 1 mg/kg single i.v., beagle dog, n = 5
[12] = 1 mg/kg, median, 1 mg/kg single i.v., beagle dog, n = 5
[13] = mean, 0.1 mg/kg single i.v., n = 5
[14] = mean, 0.3 mg/kg single i.v., n = 5
[15] = mean, 1 mg/kg single i.v., n = 5
[16] = median, 0.1 mg/kg single i.v., n = 5
[17] = median, 0.3 mg/kg single i.v., n = 5
[18] = median, 1 mg/kg single i.v., n = 5

Structure (SMILES): O=C1CN=C(c2ccccc2)c2cc([N+](=O)[O-])ccc2N1CN1CCCC1 [Neurounina-1, 7-nitro-5-phenyl-1-(pyrrolidin-1-ylmethyl)-1H-benzo[e][1,4]diazepin-2(3H)-one]
- lipophilicity index [1]: high lipophilicity index
- toxicity [1]: low toxicity
- C0 ([2]; 0.1 mg/kg, mean, 0.1 mg/kg single i.v., back-extrapolated, n = 5): 32.5 ng/mL
- Vd [2, 7]: 130 L
- clearance [2, 7]: 771 mL/min
- k el [2, 7]: 9.72e-05 s⁻¹
- half-life ([2]; 0.1 mg/kg, mean, 0.1 mg/kg single i.v., beagle dog, n = 5, read-out: t1/2 (converted)): 2.14 h
- C0 ([2]; 0.1 mg/kg, median, 0.1 mg/kg single i.v., n = 5): 30.6 ng/mL
- Vd [2, 8]: 127 L
- clearance [2, 8]: 795 mL/min
- k el [2, 8]: 0.000106 s⁻¹
- half-life ([2]; 0.1 mg/kg, median, 0.1 mg/kg single i.v., beagle dog, n = 5, read-out: t1/2 (converted)): 1.67 h
- C0 ([2]; 0.3 mg/kg, mean, 0.3 mg/kg single i.v., back-extrapolated, n = 5): 111 ng/mL
- Vd [2, 9]: 154 L
- clearance [2, 9]: 793 mL/min
- k el [2, 9]: 8.33e-05 s⁻¹
- half-life ([2]; 0.3 mg/kg, mean, 0.3 mg/kg single i.v., beagle dog, n = 5, read-out: t1/2 (converted)): 2.54 h
- C0 ([2]; 0.3 mg/kg, median, 0.3 mg/kg single i.v., n = 5): 100 ng/mL
- Vd [2, 10]: 103 L
- clearance [2, 10]: 591 mL/min
- k el [2, 10]: 8.61e-05 s⁻¹
- half-life ([2]; 0.3 mg/kg, median, 0.3 mg/kg single i.v., beagle dog, n = 5, read-out: t1/2 (converted)): 2.16 h
- C0 ([2]; 1 mg/kg, mean, 1 mg/kg single i.v., back-extrapolated, n = 5): 223 ng/mL
- Vd [2, 11]: 211 L
- clearance [2, 11]: 1150 mL/min
- k el [2, 11]: 9.17e-05 s⁻¹
- half-life ([2]; 1 mg/kg, mean, 1 mg/kg single i.v., beagle dog, n = 5, read-out: t1/2 (converted)): 2.04 h
- C0 ([2]; 1 mg/kg, median, 1 mg/kg single i.v., n = 5): 197 ng/mL
- Vd [2, 12]: 224 L
- clearance [2, 12]: 1250 mL/min
- k el [2, 12]: 8.89e-05 s⁻¹
- half-life ([2]; 1 mg/kg, median, 1 mg/kg single i.v., beagle dog, n = 5, read-out: t1/2 (converted)): 1.94 h
- half-life ([2]; beagle dog, overall statement, read-out: half-life (converted)): ~2 h
- AUC0-inf [2, 13]: 30.10 ng^∗h/mL
- AUC0-tlast [2, 13]: 26.10 ng^∗h/mL
- t1/2 ([2]; mean, 0.1 mg/kg single i.v., beagle dog, n = 5, 0.1 mg/kg): 2.02 h
- AUC0-inf [2, 14]: 122.42 ng^∗h/mL
- AUC0-tlast [2, 14]: 115.81 ng^∗h/mL
- t1/2 ([2]; mean, 0.3 mg/kg single i.v., beagle dog, n = 5, 0.3 mg/kg): 2.36 h
- AUC0-inf [2, 15]: 263.06 ng^∗h/mL
- AUC0-tlast [2, 15]: 257.28 ng^∗h/mL
- t1/2 ([2]; mean, 1 mg/kg single i.v., beagle dog, n = 5, 1 mg/kg): 2.13 h
- AUC0-inf [2, 16]: 26.44 ng^∗h/mL
- AUC0-tlast [2, 16]: 23.00 ng^∗h/mL
- AUC%extrap [2, 16]: 3.42%
- AUC0-inf [2, 17]: 133.20 ng^∗h/mL
- AUC0-tlast [2, 17]: 127.76 ng^∗h/mL
- AUC%extrap [2, 17]: 4.56%
- AUC0-inf [2, 18]: 184.06 ng^∗h/mL
- AUC0-tlast [2, 18]: 179.65 ng^∗h/mL
- AUC%extrap [2, 18]: 4.55%
- Dose linearity of pharmacokinetics ([2]; single i.v. doses up to 1.0 mg/kg, beagle dog): Linear pharmacokinetics
- time after ischemia induction at which the effect was still notable ([3]; 0.003 to 30 μg/kg intraperitoneally, mouse tMCAO): 5 h
- most effective dosage in an animal model of stroke ([3]; administered 3 h after stroke induction): 0.03 µg/kg
- protection in animal model of stroke ([3]; dose of 0.003 μg/Kg, compared with 0.03 μg/Kg): less marked
- Stability, Accuracy(%) ([4]; Freeze/thaw (4cycles, -20°C), 1.5 ng/mL, beagle dog plasma): 92.7%
- Stability, Accuracy(%) ([4]; Freeze/thaw (4cycles, -20°C), 400 ng/mL, beagle dog plasma): 101.3%
- Stability, Accuracy(%) ([4]; Post-processing (52 h) in autosampler, 1.5 ng/mL, processed beagle dog plasma): 96.0%
- Stability, Accuracy(%) ([4]; Post-processing (52 h) in autosampler, 400 ng/mL, processed beagle dog plasma): 101.8%
- Stability, Accuracy(%) ([4]; Short-term (6 h) at room temperature, 1.5 ng/mL, beagle dog plasma): 94.7%
- Stability, Accuracy(%) ([4]; Short-term (6 h) at room temperature, 400 ng/mL, beagle dog plasma): 106.5%
- Degradation in stability tests ([4]; four freezing and thawing cycles, 6 h at room temperature, 52 h after processing in the self-injector, beagle dog plasma): no significant degradation
- half maximal effective concentration (EC50) [5]: in the picomolar to low nanomolar range
- tolerability, behavior [6]: well tolerated
